The numbers were not newly measured in PubChem BioAssay AID1259410 (Chemical Carcinogenesis Research Information System (CCRIS), 2018), which cites them from elsewhere.

For the data set, the system named is rodent tumor promotion studies, tumor incidence. In words: CCRIS tumor promotion studies.
Setting [1] is: Carcinogen: 7,12-DIMETHYLBENZ(A)ANTHRACENE, Doses [Carcinogen]: TOP, Route [Carcinogen]: DERMAL, Route [Promoter]: DERMAL, Species: MOUSE, Strain/Sex: FEMALE.

Each structure is given as a SMILES string.

As to `OO`, the outcome by setting is: (Carcinogen: N-METHYL-N'-NITRO-N-NITROSOGUANIDINE, 70-25-7, Doses [Carcinogen]: 25 PPM IN WATER FOR 30 MIN, Doses [Promoter]: 0, 600, 3000 PPM IN DIETS CONTAINING HIGH (1000 PPM) LEVELS OF VITAMIN E FOR 8 MO (STUDY DURATION: 10 MO), Doses [Promoter]: 0, 600, 3000 PPM IN DIETS CONTAINING HIGH (1000 PPM) LEVELS OF VITAMIN E FOR 8 MO (STUDY DURATION: 10 MO), Route [Carcinogen]: IMMERSION, Route [Promoter]: ORAL, Species: FISH, Strain/Sex: RAINBOW TROUT/MALE, FEMALE) “liver: tumor”; (Carcinogen: N-METHYL-N'-NITRO-N-NITROSOGUANIDINE, 70-25-7, Doses [Carcinogen]: 25 PPM IN WATER FOR 30 MIN, Doses [Promoter]: 0, 600 PPM IN DIETS CONTAINING LOW (20 PPM) LEVELS OF VITAMIN E FOR 8 MO (STUDY DURATION: 10 MO), Route [Carcinogen]: IMMERSION, Route [Promoter]: ORAL, Species: FISH, Strain/Sex: RAINBOW TROUT/MALE, FEMALE) “liver: tumor”.

`O=C1C2(Cl)C3(Cl)C4(Cl)C(Cl)(Cl)C5(Cl)C3(Cl)C1(Cl)C5(Cl)C24Cl` (centres undefined): the outcome (Carcinogen: DIETHYLNITROSAMINE, 55-18-5, Doses [Carcinogen]: 20 MG/KG IN WATER ONCE, Doses [Promoter]: 0, 9 MG/KG 2/WK FOR 27 WK BEGINNING 10 D POST CARCINOGEN DOSE (STUDY DURATION: 30 WK), Route [Carcinogen]: GAVAGE, Route [Promoter]: SUBCUTANEOUS, Species: RAT, Strain/Sex: SPRAGUE-DAWLEY/FEMALE) is listed as “liver: hepatocellular carcinoma”.

With `Cc1cccc(O)c1`, the outcome under setting [1] is given as “integumentary system (skin)”. As to `C=CCC1(CC=C)C(=O)NC(=O)NC1=O`, the outcome (Carcinogen: N-NITROSODIETHYLAMINE, 55-18-5, Doses [Carcinogen]: 75 MG/KG BW IN 0.85% SALINE ONCE, Doses [Promoter]: 0, 440 PPM IN DIET FOR DURATION OF STUDY BEGINNING 2 WK POST CARCINOGEN DOSE (STUDY DURATION: 78 WK), Route [Carcinogen]: INTRAPERITONEAL, Route [Promoter]: ORAL, Species: RAT, Strain/Sex: F344/MALE) was “liver: adenoma, carcinoma”. Regarding `Cc1ccc(O)cc1`, under setting [1], the outcome is listed as “integumentary system (skin)”. As for `Oc1ccccc1-c1ccccc1`, the outcome is on record as “skin: papilloma, carcinoma” (Carcinogen: 7,12-DIMETHYLBENZ[A]ANTHRACENE, 57-97-6, Doses [Carcinogen]: 10 UG 2/WK FOR 5 WK, Doses [Promoter]: 0, 5 MG 2/WK FOR 47 WK BEGINNING 1 WK AFTER LAST CARCINOGEN DOSE (STUDY DURATION: 53 WK), Route [Carcinogen]: DERMAL, Route [Promoter]: DERMAL, Species: MOUSE, Strain/Sex: CD-1/FEMALE); “bladder: papilloma” (Carcinogen: N-BUTYL-N-4(HYDROXYBUTYL)NITROSAMINE, 3817-11-6, Doses [Carcinogen]: 0.05% IN DRINKING WATER FOR 2 WK, Doses [Promoter]: 0, 2% IN DIET STARTING POST CARCINOGEN AND CONTINUING FOR 22 WK, LEFT URETER LIGATED 8 D POST CARCINOGEN (STUDY DURATION, Route [Carcinogen]: ORAL, Route [Promoter]: ORAL, Species: RAT, Strain/Sex: F344/MALE); “urinary bladder: transitional cell carcinoma” (Carcinogen: N-BUTYL-N-(4-HYDROXYBUTYL)NITROSAMINE, Doses [Carcinogen]: 0.05% IN DRINKING WATER FOR 4 WK, Doses [Promoter]: 2.0% IN DIET FOR 32 WK AFTER INITIATION, Route [Carcinogen]: ORAL, Route [Promoter]: ORAL, Species: RAT, Strain/Sex: F344/MALE). As to `OC[C@H]1O[C@@H]2O[C@H]3[C@H](O)[C@@H](O)[C@@H](O[C@H]4[C@H](O)[C@@H](O)[C@@H](O[C@H]5[C@H](O)[C@@H](O)[C@@H](O[C@H]6[C@H](O)[C@@H](O)[C@@H](O[C@H]7[C@H](O)[C@@H](O)[C@@H](O[C@H]8[C@H](O)[C@@H](O)[C@@H](O[C@H]1[C@H](O)[C@H]2O)O[C@@H]8CO)O[C@@H]7CO)O[C@@H]6CO)O[C@@H]5CO)O[C@@H]4CO)O[C@@H]3CO`, the outcome (Carcinogen: N-ETHYL-N-(2-HYDROXYETHYL)NITROSAMINE, Doses [Carcinogen]: 500, 1000 PPM IN DIET FOR TWO WK, Doses [Promoter]: 450 MG/KG 1/D FOR 7 D AFTER INITIATION FOR 2 WK, Route [Carcinogen]: ORAL, Route [Promoter]: SUBCUTANEOUS, Species: RAT, Strain/Sex: WISTAR/MALE) is given as “kidney: tubular cell tumor”. For the molecule `CCCC[C@@H](C)[C@@H](OC(=O)C[C@@H](CC(=O)O)C(=O)O)[C@H](C[C@@H](C)C[C@H](O)CCCC[C@@H](O)C[C@H](O)[C@H](C)N)OC(=O)C[C@@H](CC(=O)O)C(=O)O`, the outcome (Doses [Carcinogen]: 100 PPB IN WATER FOR 30 MIN, Doses [Promoter]: 0, 23, 104 PPM IN DIET FOR 42 WK BEGINNING 1 MO POST CARCINOGEN TREATMENT (STUDY DURATION: 64 WK), Doses [Promoter]: 0, 23, 104 PPM IN DIET FOR 42 WK BEGINNING 1 MO POST CARCINOGEN TREATMENT (STUDY DURATION: 64 WK), Route [Carcinogen]: IMMERSION, Route [Promoter]: ORAL, Species: FISH, Strain/Sex: SHASTA RAINBOW TROUT/MALE,FEMALE) is listed as “liver: tumor”.

For `O=P(O)(O)OC1C(OP(=O)(O)O)C(OP(=O)(O)O)C(OP(=O)(O)O)C(OP(=O)(O)O)C1OP(=O)(O)O` (centres undefined), the outcome (Carcinogen: N-BUTYL-N-(4-HYDROXYBUTYL)NITROSAMINE, 3817-11-6, Doses [Carcinogen]: 0.05% IN DRINKING WATER FOR 4 WK, Doses [Promoter]: 0, 2% IN DIET BEGINNING POST CARCINOGEN TREATMENT AND CONTINUING FOR 32 WK (STUDY DURATION: 36 WK), Route [Carcinogen]: ORAL, Route [Promoter]: ORAL, Species: RAT, Strain/Sex: F344/MALE) is on record as “urinary bladder: papilloma, carcinoma”. Turning to `ClC1(Cl)C2(Cl)C3(Cl)C4(Cl)C(Cl)(Cl)C5(Cl)C3(Cl)C1(Cl)C5(Cl)C24Cl` (centres undefined), the outcome is recorded as “skin: tumor” (Carcinogen: 7,12-DIMETHYLBENZ[A]ANTHRACENE, 57-97-6, Doses [Carcinogen]: 200 NMOL IN 200 µL ACETONE ONCE, Doses [Promoter]: 0, 25, 50, 100, 200 NMOL IN 200 µL ACETONE 3/WK FOR 20 WK (STUDY DURATION: 20 WK), Doses [Promoter]: 0, 25, 50, 100, 200 NMOL IN 200 µL ACETONE 3/WK FOR 20 WK (STUDY DURATION: 20 WK), Route [Carcinogen]: DERMAL, Route [Promoter]: DERMAL, Species: MOUSE, Strain/Sex: CD-1/FEMALE); “skin: tumor” (Carcinogen: 7,12-DIMETHYLBENZ[A]ANTHRACENE, 57-97-6, Doses [Carcinogen]: 200 NMOL IN 200 µL ACETONE ONCE, Doses [Promoter]: 0, 25, 50, 100 NMOL IN 200 µL ACETONE 3/WK FOR 34 WK (STUDY DURATION: 34 WK), Doses [Promoter]: 0, 25, 50, 100 NMOL IN 200 µL ACETONE 3/WK FOR 34 WK (STUDY DURATION: 34 WK), Route [Carcinogen]: DERMAL, Route [Promoter]: DERMAL, Species: MOUSE, Strain/Sex: CD-1/FEMALE); “skin: tumors” (Carcinogen: 7,12-DIMETHYLBENZ[A]ANTHRACENE, 57-97-6, Doses [Carcinogen]: 200 NMOL IN 200 µL ACETONE ONCE, Doses [Promoter]: 0, 200 NMOL IN 200 µL ACETONE 2/WK FOR 20 WK BEGINNING 1 WK POST CARCINOGEN DOSE (STUDY DURATION: 21 WK), Route [Carcinogen]: DERMAL, Route [Promoter]: DERMAL, Species: MOUSE, Strain/Sex: CD-1/FEMALE); “skin: tumors” (Carcinogen: 7,12-DIMETHYLBENZ[A]ANTHRACENE, 57-97-6, Doses [Carcinogen]: 200 NMOL IN 200 µL ACETONE ONCE, Doses [Promoter]: 0, 200 NMOL IN 200 µL ACETONE 3/WK FOR 20 WK BEGINNING 1 WK POST CARCINOGEN DOSE (STUDY DURATION: 21 WK), Route [Carcinogen]: DERMAL, Route [Promoter]: DERMAL, Species: MOUSE, Strain/Sex: CD-1/FEMALE); “skin: tumors” (Carcinogen: 7,12-DIMETHYLBENZ[A]ANTHRACENE, 57-97-6, Doses [Carcinogen]: 200 NMOL IN 200 µL ACETONE ONCE, Doses [Promoter]: 0, 200 NMOL IN 200 µL ACETONE 3/WK FOR 20 WK BEGINNING 1 WK POST CARCINOGEN DOSE (STUDY DURATION: 21 WK), Route [Carcinogen]: DERMAL, Route [Promoter]: DERMAL, Species: MOUSE, Strain/Sex: CD-1/MALE); “skin: tumors” (Carcinogen: 7,12-DIMETHYLBENZ[A]ANTHRACENE, 57-97-6, Doses [Carcinogen]: 200 NMOL IN 200 µL ACETONE ONCE, Doses [Promoter]: 0, 200 NMOL IN 200 µL ACETONE 3/WK FOR 20 WK BEGINNING 4 WK POST CARCINOGEN DOSE ADMINISTERED TO OVARIECTOMIZED MICE (ST, Route [Carcinogen]: DERMAL, Route [Promoter]: DERMAL, Species: MOUSE, Strain/Sex: CD-1/FEMALE). As to `C[C@H](N)C(=O)NCC(=O)N[C@H]1CSSC[C@@H](C(=O)O)NC(=O)[C@H](CO)NC(=O)[C@H]([C@@H](C)O)NC(=O)[C@H](Cc2ccccc2)NC(=O)[C@H]([C@@H](C)O)NC(=O)[C@H](CCCCN)NC(=O)[C@H](Cc2c[nH]c3ccccc23)NC(=O)[C@H](Cc2ccccc2)NC(=O)[C@H](Cc2ccccc2)NC(=O)[C@H](CC(N)=O)NC(=O)[C@H](CCCCN)NC1=O`, under “Carcinogen: N-METHYL-N'-NITRO-N-NITROSOGUANIDINE, 70-25-7, Doses [Carcinogen]: 25 UG/ML DRINKING WATER FOR 25 WK, Doses [Promoter]: 0, 100, 200 UG/KG IN OLIVE OIL 1/2 D BEGINNING POST CARCINOGEN DOSE FOR DURATION OF STUDY (STUDY DURATION: 52 WK), Doses [Promoter]: 0, 100, 200 UG/KG IN OLIVE OIL 1/2 D BEGINNING POST CARCINOGEN DOSE FOR DURATION OF STUDY (STUDY DURATION: 52 WK), Route [Carcinogen]: ORAL, Route [Promoter]: SUBCUTANEOUS, Species: RAT, Strain/Sex: WISTAR/MALE”, the outcome is given as “glandular stomach: adenocarcinoma”.
